According to patent publication US12479827B2, “Heteroaromatic carboxamide derivatives as plasma kallikrein inhibitors” (Boehringer Ingelheim International GmbH, priority 2020, dated 2025):
pIC50: −log10 of the molar value.

How the values were obtained:
[1] = target: T1, PKK in kaolin activated human platelet poor plasma (Homo sapiens, UniProt P03952); assay: Inhibition of PKK in kaolin activated human PPP; assay type: biochemical; settings: 25-750 μg/mL kaolin, global fit, text b200 calls the values IC90;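 note: readout is the rate of fluorogenic substrate cleavage in rfu per min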
T1 construct: Platelet poor plasma (PPP) obtained from human wholeblood; from tissue
Experimental: Platelet poor plasma (PPP) obtained from human wholeblood, anticoagulated with Na-Citrate, is incubated with various concentrations of the test compound together with either 25, 75, 250, or 750 μg/mL kaolin in assay buffer for 20 min at 37° C. such that for each kaolin dose used a concentration response is obtained for the test compound.

Human PKK = target: T2, Human PKK (Homo sapiens, UniProt P03952); assay: Inhibition of PKK using an endpoint assay (human PKK); assay type: biochemical; settings: fluorogenic substrate H-Pro-Phe-Arg-AMC, 1 h room temperature, method names human or rat PKK, table does not say which
T2 construct: purchased Enzyme Research Laboratories
Experimental: The ability of compounds of formula (I) to inhibit plasma kallikrein (PKK), Factor XIIa (FXIIa), Factor XIa (FXIa), Factor Xa (FXa), Factor IIa (alpha-thrombin; FIIa), plasmin, trypsin, tissue kallikrein 1 (TK1), Factor VIIa (FVIIa), or FVIIa complexed with Tissue Factor, phospholipids and CaCl2 (FVIIa/TF/PL/CaCl2) is determined using the following biochemical assays in assay buffer (100 mM Tris, 150 mM NaCL, adjusted to a pH of 7.8 with HCl, and containing 0.1% (w/v) BSA and 0.05% (v/v) Tween20) in the presence of 1% (v/v) DMSO:
Subsequently, PPACK II (Calbiochem) is added as a stop solution to achieve a final concentration of 1 μM and fluorescence is measured using an Envision Reader (PerkinElmer) with the wavelength excitation setting of 355 nm and the wavelength emission setting of 460 nm.

T1 sequence (P03952 391-638 limits assumed): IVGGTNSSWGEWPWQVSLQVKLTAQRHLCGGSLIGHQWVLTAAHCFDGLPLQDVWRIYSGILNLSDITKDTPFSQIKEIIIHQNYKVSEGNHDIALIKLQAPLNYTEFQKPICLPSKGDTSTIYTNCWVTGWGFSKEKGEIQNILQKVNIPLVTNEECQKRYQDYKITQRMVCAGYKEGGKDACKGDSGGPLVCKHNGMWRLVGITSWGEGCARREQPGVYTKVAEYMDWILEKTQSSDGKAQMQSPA
T1 sequence (P03952 20-390 limits assumed): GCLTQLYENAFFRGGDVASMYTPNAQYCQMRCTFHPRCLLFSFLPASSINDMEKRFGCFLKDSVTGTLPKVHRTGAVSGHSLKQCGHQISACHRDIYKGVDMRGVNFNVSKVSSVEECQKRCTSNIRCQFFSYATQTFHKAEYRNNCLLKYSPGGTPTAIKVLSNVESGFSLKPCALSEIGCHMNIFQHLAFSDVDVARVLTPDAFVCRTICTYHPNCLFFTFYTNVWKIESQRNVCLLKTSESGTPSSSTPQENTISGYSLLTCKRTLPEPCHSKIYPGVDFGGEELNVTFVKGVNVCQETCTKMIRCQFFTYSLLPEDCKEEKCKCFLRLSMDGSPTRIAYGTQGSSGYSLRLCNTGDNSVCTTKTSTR
T2 sequence (P03952 20-390 limits assumed): as above
T2 sequence (P03952 391-638 limits assumed): as the sequence (P03952 391-638 limits assumed) above

Structure (SMILES)	pIC50 [1]	pIC50 (Human PKK)
Cc1nc(N2CC3CC3C2)ncc1Cn1cc(C(=O)N[C@@H]2CCc3c2ncn3C)c2cncnc21 (stereo partly drawn) [Example 174, 7-[(2-{3-Azabicyclo[3.1.0]hexan-3-yl}-4-methylpyrimidin-5-yl)methyl]-N-[(4R)-1-methyl-1H,4H,5H,6H-cyclopenta[d]imidazol-4-yl]-7H-pyrrolo[2,3-d]pyrimidine-5-carboxamide]	5.84	8.72
Cn1cnc2c1CC[C@H]2NC(=O)c1cn(Cc2ccc(N3CC4(CC4)C3)nc2Br)nn1 [Example 6, 1-[(6-{5-Azaspiro[2.3]hexan-5-yl}-2-bromopyridin-3-yl)methyl]-N-[(4R)-1-methyl-1H,4H,5H,6H-cyclo-penta[d]imidazol-4-yl]-1H-1,2,3-triazole-4-carboxamide]	5.73	9.05
Cn1cnc2c1CC[C@H]2NC(=O)c1cnn(Cc2ccc(N3CC4C(C3)C4(F)F)cc2Br)c1 (stereo partly drawn) [Example 209, 1-[(2-bromo-4-{6,6-difluoro-3-azabicyclo-[3.1.0]hexan-3-yl}phenyl)methyl]-N-[(4R)-1-methyl-1H,4H,5H,6H-cyclopenta[d]imidazol-4-yl]-1H-pyrazole-4-carboxamide]	6.36	8.82
Cn1cnc2c1CC[C@H]2NC(=O)c1cnn(Cc2ncc(N3CC4CC4C3)nc2CO)c1 (stereo partly drawn) [Example 89, 1-[(5-{3-Azabicyclo[3.1.0]hexan-3-yl}-3-(hydroxymethyl)-pyrazin-2-yl)methyl]-N-[(4R)-1-methyl-1H,4H,5H,6H-cyclopenta[d]imidazol-4-yl]-1H-pyrazole-4-carboxamide]	5.46	7.11
Cn1cnc2c1CC[C@H]2NC(=O)c1c[nH]c(Cc2ccc(N3CC4C(C3)C4(F)F)nc2)c1 (stereo partly drawn) [Example 139, 5-[(6-{6,6-Difluoro-3-azabicyclo[3.1.0]hexan-3-yl}pyridin-3-yl)methyl]-N-[(4R)-1-methyl-1H,4H,5H,6H-cyclopenta[d]imidazol-4-yl]-1H-pyrrole-3-carboxamide]	6.11	8.02
CCc1nc(N2CC3C(C2)C3(F)F)ccc1Cc1ccc(C(=O)N[C@@H]2CCc3c2ncn3C)s1 (stereo partly drawn) [Example 184, 5-[(6-{6,6-Difluoro-3-azabicyclo[3.1.0]hexan-3-yl}-2-ethylpyridin-3-yl)methyl]-N-[(4R)-1-methyl-1H,4H,5H,6H-cyclopenta[d]imidazol-4-yl]thiophene-2-carboxamide]	5.64	7.87
Cn1cnc2c1CC[C@H]2NC(=O)c1cnn(Cc2ccc(N3CC4C(C3)C4(F)F)cn2)c1 (stereo partly drawn) [Example 41, 1-[(5-{6,6-Difluoro-3-azabicyclo[3.1.0]hexan-3-yl}pyridin-2-yl)methyl]-N-[(4R)-1-methyl-1H,4H,5H,6H-cyclopenta[d]imidazol-4-yl]-1H-pyrazole-4-carboxamide]	6.31	8.47
Cn1cnc2c1CC[C@H]2NC(=O)c1cn(Cc2ccc(N3CC4C(C3)C4(F)F)nc2Br)nn1 (stereo partly drawn) [Example 14, 1-[(2-Bromo-6-{6,6-difluoro-3-azabicyclo-[3.1.0]hexan-3-yl}pyridin-3-yl)methyl]-N-[(4R)-1-methyl-1H,4H,5H,6H-cyclopenta[d]imidazol-4-yl]-1H-1,2,3-triazole-4-carboxamide]	6.20	9.00
Cn1cnc2c1CC[C@H]2NC(=O)c1cnn(Cc2ccc(N3CC4C(C3)C4(F)F)nc2Cl)c1 (stereo partly drawn) [Example 44, 1-[(2-Chloro-6-{6,6-difluoro-3-azabicyclo-[3.1.0]hexan-3-yl}pyridin-3-yl)methyl]-N-[(4R)-1-methyl-1H,4H,5H,6H-cyclopenta[d]imidazol-4-yl]-1H-pyrazole-4-carboxamide]	6.35	8.74
CCCc1nc(N2CC3CC3C2)ccc1Cn1cnc(C(=O)N[C@@H]2CCc3c2ncn3C)c1 (stereo partly drawn) [Example 31, 1-[(6-{3-Azabicyclo[3.1.0]hexan-3-yl}-2-propylpyridin-3-yl)methyl]-N-[(4R)-1-methyl-1H,4H,5H,6H-cyclopenta[d]imidazol-4-yl]-1H-imidazole-4-carboxamide]	6.01	8.28

These reach a higher pIC50 [1]. Values come first.

pIC50 [1]	pIC50 (Human PKK)	Structure (SMILES)
6.57	8.89	Cc1nc(N2CC3C(C2)C3(F)F)ccc1Cc1cc(C(=O)N[C@@H]2CCc3c2ncn3C)n(C)n1 (stereo partly drawn) [Example 167, 3-[(6-{6,6-Difluoro-3-azabicyclo[3.1.0]hexan-3-yl}-2-methylpyridin-3-yl)methyl]-1-methyl-N-[(4R)-1-methyl-1H,4H,5H,6H-cyclopenta-[d]imidazol-4-yl]-1H-pyrazole-5-carboxamide]
6.93	9.10	C[C@@H](O)c1nc(N2CC3CC3C2)ccc1Cn1cc(C(=O)N[C@@H]2CCc3c2ncn3C)cn1 (stereo partly drawn) [Example 82, 1-[(6-{3-Azabicyclo[3.1.0]hexan-3-yl}-2-[(1R)-1-hydroxy-ethyl]pyridin-3-yl)methyl]-N-[(4R)-1-methyl-1H,4H,5H,6H-cyclopenta[d]imidazol-4-yl]-1H-pyrazole-4-carboxamide]
6.86	9.40	Cn1cnc2c1CC[C@H]2NC(=O)c1cn(Cc2ccc(N3CC4CC4C3)cc2C#N)cn1 (stereo partly drawn) [Example 206, 1-[(4-{3-azabicyclo[3.1.0]hexan-3-yl}-2-cyanophenyl)methyl]-N-[(4R)-1-methyl-1H,4H,5H,6H-cyclopenta[d]imidazol-4-yl]-1H-imidazole-4-carboxamide]
6.71	8.48	COCc1nc(N2CC3(CC3)C2)ccc1Cn1cnc(C(=O)N[C@@H]2CCc3c2ncn3C)c1 [Example 77, 1-[(6-{5-Azaspiro[2.3]hexan-5-yl}-2-(methoxymethyl)-pyridin-3-yl)methyl]-N-[(4R)-1-methyl-1H,4H,5H,6H-cyclopenta[d]imidazol-4-yl]-1H-imidazole-4-carboxamide]
6.52	8.68	Cn1cnc2c1CC[C@H]2NC(=O)c1cn(Cc2ccc(N3CC4(CC4)C3)nc2F)cn1 [Example 11, 1-[(6-{5-Azaspiro[2.3]hexan-5-yl}-2-fluoropyridin-3-yl)methyl]-N-[(4R)-1-methyl-1H,4H,5H,6H-cyclopenta[d]imidazol-4-yl]-1H-imidazole-4-carboxamide]
6.82	9.15	Cn1cnc2c1CC[C@H]2NC(=O)c1cn(Cc2ccc(N3CC4C(C3)C4(F)F)nc2C(F)F)cn1 (stereo partly drawn) [Example 45, 1-[(6-{6,6-Difluoro-3-azabicyclo[3.1.0]hexan-3-yl}-2-(difluoromethyl)pyridin-3-yl)methyl]-N-[(4R)-1-methyl-1H,4H,5H,6H-cyclopenta-[d]imidazol-4-yl]-1H-imidazole-4-carboxamide]
6.89	9.40	Cn1cnc2c1CC[C@H]2NC(=O)c1cn(Cc2ccc(N3CC4C(C3)C4(F)F)cc2C#N)cn1 (stereo partly drawn) [Example 210, 1-[(2-cyano-4-{6,6-difluoro-3-azabicyclo-[3.1.0]hexan-3-yl}phenyl)methyl]-N-[(4R)-1-methyl-1H,4H,5H,6H-cyclopenta[d]imidazol-4-yl]-1H-imidazole-4-carboxamide]
6.47	8.59	Cn1cnc2c1CC[C@H]2NC(=O)c1cn(Cc2cnc(N3CC4CC4C3)nc2C(F)F)cn1 (stereo partly drawn) [Example 29, 1-[(2-{3-Azabicyclo[3.1.0]hexan-3-yl}-4-(difluoromethyl)-pyrimidin-5-yl)methyl]-N-[(4R)-1-methyl-1H,4H,5H,6H-cyclopenta[d]imidazol-4-yl]-1H-imidazole-4-carboxamide]
6.69	9.15	Cn1cnc2c1CC[C@H]2NC(=O)c1cn(Cc2ccc(N3CC4CC4C3)c(C#N)c2Cl)cn1 (stereo partly drawn) [Example 203, 1-[(4-{3-azabicyclo[3.1.0]hexan-3-yl}-2-chloro-3-cyanophenyl)methyl]-N-[(4R)-1-methyl-1H,4H,5H,6H-cyclopenta[d]imidazol-4-yl]-1H-imidazole-4-carboxamide]
6.55	9.30	CCc1nc(N2CC3C(C2)C3(F)F)ccc1Cc1cc(C(=O)N[C@@H]2CCc3c2ncn3C)on1 (stereo partly drawn) [Example 153, 3-[(6-{6,6-Difluoro-3-azabicyclo[3.1.0]hexan-3-yl}-2-ethylpyridin-3-yl)methyl]-N-[(4R)-1-methyl-1H,4H,5H,6H-cyclopenta[d]imidazol-4-yl]-1,2-oxazole-5-carboxamide]
6.69	8.52	Cn1cnc2c1CC[C@H]2NC(=O)c1cn(Cc2ccc(N3CC4C(C3)C4(F)F)nc2)cn1 (stereo partly drawn) [Example 63, 1-[(6-{6,6-Difluoro-3-azabicyclo[3.1.0]hexan-3-yl}pyridin-3-yl)methyl]-N-[(4R)-1-methyl-1H,4H,5H,6H-cyclopenta[d]imidazol-4-yl]-1H-imidazole-4-carboxamide]
6.49	8.16	Cn1cnc2c1CC[C@H]2NC(=O)c1cn(Cc2ccc(N3CC4(CC4)C3)nc2)cn1 [Example 74, 1-[(6-{5-Azaspiro[2.3]hexan-5-yl}pyridin-3-yl)-methyl]-N-[(4R)-1-methyl-1H,4H,5H,6H-cyclopenta[d]imidazol-4-yl]-1H-imidazole-4-carboxamide]
